Experimental data as given in patent US9388139B2, “Derivatives of celeboxib, use thereof and preparation thereof” (German University, priority 2011, dated 2016).

Key:
[1] = tested on: human colorectal HT-29 tumor cell line; assay: Tumor cell growth assay (Cell Titer Glo); format: cell-based; conditions: HT-29, 72 hours, read-out: IC50 μM against HT-29
[2] = molecular target: PDE3A (Homo sapiens (Human), UniProt Q14432); assay: PDE isozyme selectivity, IMAP assay; format: biochemical
Description: (§1) PDE activity was measured using the IMAP fluorescence polarization assay (Molecular Devices) in which binding of hydrolyzed cyclic nucleotide substrate to immobilized metal coordination complexes increases fluorescence polarization (FP). Tetramethylrhodamine (TAMRA)-cGMP and fluorescein-cAMP were used as substrates, each at final concentration of 50 nmol/L. The PDE assay was done according to the manufacturer's specifications using either whole cell lysates or recombinant enzymes. FP was measured at excitation, emission wavelengths of either 530,590 nm for TAMRA-cGMP or 485,530 nm for fluorescein-cAMP using a Synergy4 (Biotek) microplate reader.

[3] = molecular target: PDE1A (Homo sapiens (Human), UniProt P54750); assay: PDE isozyme selectivity, IMAP assay; format: biochemical
Chain of PDE1A (P54750 whole entry, species assumed): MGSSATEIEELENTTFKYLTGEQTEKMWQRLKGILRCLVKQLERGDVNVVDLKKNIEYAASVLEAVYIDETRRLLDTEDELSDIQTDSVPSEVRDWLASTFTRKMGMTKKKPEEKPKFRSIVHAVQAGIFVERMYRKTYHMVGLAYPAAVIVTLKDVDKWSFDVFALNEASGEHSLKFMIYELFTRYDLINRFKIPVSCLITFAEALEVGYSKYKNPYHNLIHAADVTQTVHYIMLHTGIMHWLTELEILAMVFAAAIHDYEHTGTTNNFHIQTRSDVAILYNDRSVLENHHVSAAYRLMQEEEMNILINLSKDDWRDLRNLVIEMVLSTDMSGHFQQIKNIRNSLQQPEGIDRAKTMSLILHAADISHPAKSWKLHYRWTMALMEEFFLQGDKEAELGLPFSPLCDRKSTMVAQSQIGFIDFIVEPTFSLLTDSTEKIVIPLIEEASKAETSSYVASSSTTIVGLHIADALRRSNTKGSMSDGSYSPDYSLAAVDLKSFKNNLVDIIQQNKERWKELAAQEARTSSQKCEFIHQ
Description: as §1

[4] = molecular target: PDE5A (Homo sapiens (Human), UniProt O76074); assay: PDE isozyme selectivity, IMAP assay; format: biochemical
Description: as §1

[5] = molecular target: PDE9A (Homo sapiens (Human), UniProt O76083); assay: PDE isozyme selectivity, IMAP assay; format: biochemical; conditions: substrate cGMP
Description: as §1

[6] = molecular target: PDE3B (Homo sapiens (Human), UniProt Q13370); assay: PDE isozyme selectivity, IMAP assay; format: biochemical
Chain of PDE3B (Q13370 whole entry, species assumed): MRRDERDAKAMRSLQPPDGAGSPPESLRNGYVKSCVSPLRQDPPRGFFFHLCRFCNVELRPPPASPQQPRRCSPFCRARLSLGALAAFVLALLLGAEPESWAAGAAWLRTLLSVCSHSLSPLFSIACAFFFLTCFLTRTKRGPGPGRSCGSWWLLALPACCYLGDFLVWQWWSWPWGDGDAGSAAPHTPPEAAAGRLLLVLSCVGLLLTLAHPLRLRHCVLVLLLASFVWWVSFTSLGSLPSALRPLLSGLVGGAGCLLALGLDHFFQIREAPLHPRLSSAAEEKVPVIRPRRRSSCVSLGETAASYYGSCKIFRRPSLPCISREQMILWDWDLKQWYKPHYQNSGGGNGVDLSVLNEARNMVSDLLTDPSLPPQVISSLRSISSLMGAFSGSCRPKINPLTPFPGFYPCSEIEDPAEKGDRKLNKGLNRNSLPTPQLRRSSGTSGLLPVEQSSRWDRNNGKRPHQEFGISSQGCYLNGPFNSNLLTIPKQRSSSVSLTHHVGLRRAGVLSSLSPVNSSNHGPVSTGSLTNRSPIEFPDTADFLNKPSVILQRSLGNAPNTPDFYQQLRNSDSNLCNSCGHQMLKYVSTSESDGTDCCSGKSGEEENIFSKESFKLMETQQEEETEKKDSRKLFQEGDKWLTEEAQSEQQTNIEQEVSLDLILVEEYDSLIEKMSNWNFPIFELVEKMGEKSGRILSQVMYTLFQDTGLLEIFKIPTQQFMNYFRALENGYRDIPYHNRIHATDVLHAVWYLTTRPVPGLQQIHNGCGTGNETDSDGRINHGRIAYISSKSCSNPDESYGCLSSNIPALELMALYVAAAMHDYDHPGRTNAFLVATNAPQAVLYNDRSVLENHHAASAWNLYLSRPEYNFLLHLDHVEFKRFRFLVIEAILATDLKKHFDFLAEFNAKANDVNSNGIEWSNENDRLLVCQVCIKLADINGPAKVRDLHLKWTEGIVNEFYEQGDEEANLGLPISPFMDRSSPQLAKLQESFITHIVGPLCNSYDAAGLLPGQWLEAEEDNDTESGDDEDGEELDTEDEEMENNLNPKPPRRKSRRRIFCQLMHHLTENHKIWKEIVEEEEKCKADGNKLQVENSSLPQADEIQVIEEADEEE
Description: as §1

[7] = molecular target: PDE11 (Homo sapiens (Human), UniProt Q9HCR9); assay: PDE isozyme selectivity, IMAP assay; format: biochemical
Chain of PDE11 (Q9HCR9 whole entry): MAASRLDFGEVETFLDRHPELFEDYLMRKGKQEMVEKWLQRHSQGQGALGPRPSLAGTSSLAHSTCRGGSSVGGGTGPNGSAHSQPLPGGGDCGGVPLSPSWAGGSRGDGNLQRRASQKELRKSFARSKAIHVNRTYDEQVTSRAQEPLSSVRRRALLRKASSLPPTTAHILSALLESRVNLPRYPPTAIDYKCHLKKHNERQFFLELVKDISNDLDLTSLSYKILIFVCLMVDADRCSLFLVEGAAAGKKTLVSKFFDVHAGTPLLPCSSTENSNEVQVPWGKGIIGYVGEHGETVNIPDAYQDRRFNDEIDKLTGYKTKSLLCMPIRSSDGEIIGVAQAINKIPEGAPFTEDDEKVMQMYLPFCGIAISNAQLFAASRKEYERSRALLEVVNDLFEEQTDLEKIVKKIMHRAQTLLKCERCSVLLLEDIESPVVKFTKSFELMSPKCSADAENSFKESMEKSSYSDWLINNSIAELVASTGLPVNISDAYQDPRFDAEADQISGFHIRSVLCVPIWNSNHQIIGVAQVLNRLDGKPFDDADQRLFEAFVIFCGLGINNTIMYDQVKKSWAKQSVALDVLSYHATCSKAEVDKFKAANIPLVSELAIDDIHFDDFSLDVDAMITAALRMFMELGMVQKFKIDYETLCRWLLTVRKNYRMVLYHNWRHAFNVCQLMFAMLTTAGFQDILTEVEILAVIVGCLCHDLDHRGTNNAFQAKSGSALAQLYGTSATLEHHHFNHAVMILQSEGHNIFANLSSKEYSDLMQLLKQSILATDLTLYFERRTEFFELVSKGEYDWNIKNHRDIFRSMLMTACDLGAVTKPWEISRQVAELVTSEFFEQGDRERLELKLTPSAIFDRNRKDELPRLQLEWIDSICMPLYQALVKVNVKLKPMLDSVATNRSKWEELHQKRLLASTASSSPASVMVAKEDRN
Description: as §1

[8] = molecular target: PDE10 (Homo sapiens (Human), UniProt Q9Y233); assay: PDE isozyme selectivity, IMAP assay; format: biochemical
Chain of PDE10 (Q9Y233 whole entry): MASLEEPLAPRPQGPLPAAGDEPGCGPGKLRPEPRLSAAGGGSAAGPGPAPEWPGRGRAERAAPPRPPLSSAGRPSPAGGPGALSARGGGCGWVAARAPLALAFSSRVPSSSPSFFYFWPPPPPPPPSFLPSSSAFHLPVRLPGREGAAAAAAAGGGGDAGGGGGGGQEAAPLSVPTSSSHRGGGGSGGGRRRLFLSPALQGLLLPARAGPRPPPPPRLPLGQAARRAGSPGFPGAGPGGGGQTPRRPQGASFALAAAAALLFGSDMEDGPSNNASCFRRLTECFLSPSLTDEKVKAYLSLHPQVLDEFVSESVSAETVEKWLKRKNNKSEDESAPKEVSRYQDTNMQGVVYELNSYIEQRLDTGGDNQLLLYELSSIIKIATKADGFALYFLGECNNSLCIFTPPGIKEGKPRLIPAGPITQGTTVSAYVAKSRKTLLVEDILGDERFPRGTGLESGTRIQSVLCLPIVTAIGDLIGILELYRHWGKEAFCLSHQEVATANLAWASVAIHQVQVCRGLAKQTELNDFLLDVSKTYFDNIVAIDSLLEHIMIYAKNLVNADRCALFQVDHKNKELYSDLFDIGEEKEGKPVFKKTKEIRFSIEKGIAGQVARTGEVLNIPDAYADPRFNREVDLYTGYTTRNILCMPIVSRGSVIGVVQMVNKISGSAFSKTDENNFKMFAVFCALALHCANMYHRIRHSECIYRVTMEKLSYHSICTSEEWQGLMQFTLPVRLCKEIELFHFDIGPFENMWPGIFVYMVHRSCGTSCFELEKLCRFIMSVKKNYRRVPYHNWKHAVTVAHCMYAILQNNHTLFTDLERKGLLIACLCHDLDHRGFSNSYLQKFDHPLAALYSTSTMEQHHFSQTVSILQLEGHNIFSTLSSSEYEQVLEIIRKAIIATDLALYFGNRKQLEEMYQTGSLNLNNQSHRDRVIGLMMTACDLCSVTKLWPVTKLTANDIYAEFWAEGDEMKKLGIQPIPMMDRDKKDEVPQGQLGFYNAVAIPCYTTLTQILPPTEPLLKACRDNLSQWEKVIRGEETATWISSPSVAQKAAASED
Description: as §1

[9] = molecular target: COX1 (Ovis aries (Sheep), UniProt P05979); assay: COX-1 activity, colorimetric assay; format: biochemical, ovine; conditions: screening dose 100 μM; read-out: IC50 μM against COX1
Description: (§2) Compounds according to the present disclosure were tested for their in vitro ability to inhibit recombinant human PDE5, COX1 and COX2 enzymes at screening doses of 50, 100 and 100 μM respectively.
COX-1 and COX-2 activities were measured using purified ovine COX-1 and COX-2 with colorimetric assay kits obtained from Cayman Chemical Co. (Ann Arbor, Mich.). The activities of COX-1 and COX-2 were measured after the addition of arachidonic acid and incubation at 25° C. for 5 min by absorbance at 590 nm as specified by the manufacturer.

[10] = tested on: human breast MDA-MB-231 tumor cell line; assay: Tumor cell growth assay (Cell Titer Glo); format: cell-based; conditions: MDA-MB-231, 72 hours, read-out: IC50 μM against MDA-MB-231
[11] = tested on: MOLT-4; assay: Tumor cell growth inhibition panel; format: cell-based; conditions: Homo sapiens, Hematopoietic
Description: (§3) Thus, compound 12 is able to show broad spectrum tumor cell growth inhibitory activity independent of cyclooxygenase inhibition, whereas PDE5 may be the major contributor to such activity.
(§4) The human tumor cell lines were purchased from the American Type Culture Collection (Mansassas, Va.) and maintained in RPMI-1640+2.0 g/L glucose pH 7.4+5% FBS+4 mM glutamine (complete growth medium), incubated at 37° C. in 5% CO2, and passaged at subconfluent density. The human fetal colon FHC cells were cultured in DMEM:F12 medium supplemented with 10% FBS, cholera toxin (10 ng/mL), 5 μg/ml transferrin, 5 μg/ml insulin, and 100 ng/ml hydrocortisone. The passage number was routinely limited to approximately 20 and morphology monitored with each passage, but no additional authentication of the cell lines was performed.
(§5) Cells were plated in 96-well microtiter plates at a density of 5,000 cells per well and allowed to adhere overnight prior to treatment. Cells were treated with a 2-log concentration range of either SS or SBA and incubated for an additional 72 hours. For siRNA assays, cells were transfected in OptiMEM media with 0.5% SureFECT transfection reagent and 200 nmol/L of either negative control or PDE5 siRNA and incubated at 37° C. for 24 h prior to treatment. At the end of the incubation period, relative cell viability was compared to vehicle controls using the Cell Titer Glo Assay (Promega, Madison Wis.), which measures viable cells based on ATP content, according to the manufacturer's specifications.

[12] = tested on: HOP-92; assay: Tumor cell growth inhibition panel; format: cell-based; conditions: Homo sapiens, Lung
Description: as §3, §4, §5

[13] = tested on: MALME-3M; assay: Tumor cell growth inhibition panel; format: cell-based; conditions: Homo sapiens, Melanoma
Description: as §3, §4, §5

[14] = tested on: CCFR-CEM; assay: Tumor cell growth inhibition panel; format: cell-based; conditions: Homo sapiens, Hematopoietic
Description: as §3, §4, §5

[15] = tested on: NCI-H322M; assay: Tumor cell growth inhibition panel; format: cell-based; conditions: Homo sapiens, Lung
Description: as §3, §4, §5

[16] = tested on: U251; assay: Tumor cell growth inhibition panel; format: cell-based; conditions: Homo sapiens, U-251, CNS
Description: as §3, §4, §5

[17] = tested on: ACHN; assay: Tumor cell growth inhibition panel; format: cell-based; conditions: Homo sapiens, Renal
Description: as §3, §4, §5

[18] = tested on: NCI-H226; assay: Tumor cell growth inhibition panel; format: cell-based; conditions: Homo sapiens, Lung
Description: as §3, §4, §5

[19] = tested on: IGROV-1; assay: Tumor cell growth inhibition panel; format: cell-based; conditions: Homo sapiens, Ovarian
Description: as §3, §4, §5

[20] = tested on: SR; assay: Tumor cell growth inhibition panel; format: cell-based; conditions: Homo sapiens, Hematopoietic
Description: as §3, §4, §5

[21] = tested on: HL-60 (TB); assay: Tumor cell growth inhibition panel; format: cell-based; conditions: Homo sapiens, Hematopoietic
Description: as §3, §4, §5

[22] = tested on: EKVX; assay: Tumor cell growth inhibition panel; format: cell-based; conditions: Homo sapiens, Lung
Description: as §3, §4, §5

[23] = tested on: OVCAR-3; assay: Tumor cell growth inhibition panel; format: cell-based; conditions: Homo sapiens, Ovarian
Description: as §3, §4, §5

[24] = molecular target: recombinant human PDE5 (Homo sapiens (Human), UniProt O76074); assay: PDE5 inhibition, IMAP fluorescence polarization assay; format: biochemical; conditions: recombinant human PDE5; IC50 determined if inhibition >50% at 50 μM screening dose; read-out: IC50 μM against PDE5
Description: as §2
as §1, with “enzymes.” for “enzymes. FP was measured at excitation, emission wavelengths of either 530,590 nm for TAMRA-cGMP or 485,530 nm for fluorescein-cAMP using a Synergy4 (Biotek) microplate reader.”

Chain of PDE3A (Q14432 whole entry, species assumed): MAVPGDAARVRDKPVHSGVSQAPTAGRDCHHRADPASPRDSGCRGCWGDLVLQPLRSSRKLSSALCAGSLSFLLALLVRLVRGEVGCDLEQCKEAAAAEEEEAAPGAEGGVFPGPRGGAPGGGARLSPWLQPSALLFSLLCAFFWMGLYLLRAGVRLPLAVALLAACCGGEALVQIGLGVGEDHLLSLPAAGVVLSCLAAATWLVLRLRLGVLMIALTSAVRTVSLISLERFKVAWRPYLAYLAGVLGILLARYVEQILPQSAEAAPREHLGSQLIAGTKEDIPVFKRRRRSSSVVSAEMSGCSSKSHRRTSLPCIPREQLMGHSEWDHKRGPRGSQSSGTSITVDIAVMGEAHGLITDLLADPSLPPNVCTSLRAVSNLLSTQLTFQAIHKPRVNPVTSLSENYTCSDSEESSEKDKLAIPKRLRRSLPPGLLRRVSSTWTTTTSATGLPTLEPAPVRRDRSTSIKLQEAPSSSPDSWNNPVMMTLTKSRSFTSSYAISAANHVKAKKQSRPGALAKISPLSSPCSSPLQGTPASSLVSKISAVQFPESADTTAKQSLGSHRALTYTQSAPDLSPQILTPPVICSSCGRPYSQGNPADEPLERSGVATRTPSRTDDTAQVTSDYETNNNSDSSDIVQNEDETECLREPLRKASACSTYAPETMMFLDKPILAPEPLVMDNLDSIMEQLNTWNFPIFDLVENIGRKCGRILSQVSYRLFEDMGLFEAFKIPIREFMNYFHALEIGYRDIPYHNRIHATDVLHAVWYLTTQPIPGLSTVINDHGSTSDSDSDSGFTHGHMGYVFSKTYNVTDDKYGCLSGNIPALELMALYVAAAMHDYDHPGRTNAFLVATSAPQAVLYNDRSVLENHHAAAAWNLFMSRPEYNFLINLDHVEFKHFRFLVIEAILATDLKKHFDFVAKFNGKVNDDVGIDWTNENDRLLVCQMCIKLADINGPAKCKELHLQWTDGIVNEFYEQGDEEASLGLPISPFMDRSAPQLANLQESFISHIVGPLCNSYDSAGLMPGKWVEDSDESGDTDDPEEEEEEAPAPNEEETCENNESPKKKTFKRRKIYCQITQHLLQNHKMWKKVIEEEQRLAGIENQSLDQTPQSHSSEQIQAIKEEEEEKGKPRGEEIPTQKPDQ

CC(C)(C)C1=NN(c2ccc(C(=O)O)cc2)C(c2ccc(Cl)cc2Cl)C1 (stereo not drawn) [Compound 12, 4-(3-(tert-Butyl)-5-(2,4-dichlorophenyl)-4,5-dihydro-1H-pyrazol-1-yl)benzoic acid]
IC50 [1]: 29.8 µM | IC50 ([2]; substrate cAMP): > 50 µM | IC50 ([2]; substrate cGMP): > 50 µM | IC50 ([3]; substrate cAMP): > 50 µM | IC50 ([3]; substrate cGMP): > 50 µM | IC50 ([4]; PDE5A, substrate cGMP): 3.7 µM | selectivity for PDE5 relative to other cGMP degrading PDE isozymes ([4]; in words): selective inhibitor for PDE5 | IC50 [5]: > 50 µM | IC50 ([6]; substrate cAMP): > 50 µM | IC50 ([6]; substrate cGMP): > 50 µM | IC50 ([7]; PDE11, substrate cAMP): > 50 µM | IC50 ([7]; PDE11, substrate cGMP): > 50 µM | IC50 ([8]; PDE10, substrate cAMP): > 50 µM | IC50 ([8]; PDE10, substrate cGMP): > 50 µM | IC50 [9]: > 100 µM | IC50 [10]: > 50 µM | IC50 [11]: 20.7 µM | IC50 [12]: 52.8 µM | IC50 [13]: 65.7 µM | IC50 [14]: 33.1 µM | IC50 [15]: 49.8 µM | IC50 [16]: 33.3 µM | IC50 [17]: 55.3 µM | IC50 [18]: 56.4 µM | IC50 [19]: 59 µM | IC50 [20]: 43 µM | IC50 [21]: 34.5 µM | IC50 [22]: 57.2 µM | IC50 [23]: 37.8 µM | IC50 [24]: 3.7 µM
